In general, melting point refers to the temperature of the solid-liquid transition. For orientation: chromatographic logP means lipophilicity estimated from chromatographic retention. A low value points to lower lipophilicity.

Data set [1] relates to larvae of the mustard beetle (Phaedon cochleariae). Put plainly: Phaedon Larvae Test. Conditions: cabbage leaves dipped, 0.1 % by weight active compound; after 7 days. The format is in vivo. Here is the method:
(§1) To produce a suitable preparation of active compound, 1 part by weight of active compound is mixed with the stated amounts of solvent and emulsifier, and the concentrate is diluted with water to the desired concentration.
Cabbage leaves (Brassica oleracea) are treated by being dipped into the preparation of active compound of the desired concentration and populated with larvae of the mustard beetle (Phaedon cochleariae) while the leaves are still moist.
After 7 days, the kill is determined and expressed in per cent. An efficacy of 100% means that all beetle larvae have been killed, while an efficacy of 0% means that no beetle larvae have been killed.

The nature of data set [2]: log P determination by HPLC (EEC Directive 79/831 Annex V. A8, gradient method). The format is physicochemical. Conditions: acetonitrile/0.1% aqueous phosphoric acid.
Another data set concerns Venturia inaequalis. Put plainly: Venturia Test (Apple)/protective. Conditions: young apple plants sprayed at 100 g/ha, protective; evaluation 12 days after inoculation. Format: in vivo. Here is the method:
Venturia Test (Apple)/protective
as §1
To test for protective activity, young plants are sprayed with the preparation of active compound at the stated application rate. After the spray coating has dried on, the plants are inoculated with an aqueous conidia suspension of the causative organism of apple scab Venturia inaequalis and then remain in an incubation cabin at approximately 20° C. and 100% relative atmospheric humidity for 1 day.
The plants are then placed in a greenhouse at approximately 21° C. and a relative atmospheric humidity of approximately 90%.
Evaluation is carried out 12 days after the inoculation. 0% means an efficacy which corresponds to that of the control, while an efficacy of 100% means that no infection is observed.

For a further data set, the system named is Leptosphaeria nodorum. The data set is described as follows: Leptosphaeria nodorum Test (Wheat)/protective. The format is in vivo. Conditions: young wheat plants sprayed at 250 g/ha, protective; evaluation 10 days after inoculation. How it is done: Leptosphaeria nodorum Test (Wheat)/protective
as §1
To test for protective activity, young plants are sprayed with the preparation of active compound at the stated application rate. After the spray coating has dried on, the plants are sprayed with a spore suspension of Leptosphaeria nodorum. The plants remain in an incubation cabin at 20° C. and 100% relative atmospheric humidity for 48 hours.
The plants are then placed in a greenhouse at a temperature of approximately 15° C. and a relative atmospheric humidity of 80%.
Evaluation is carried out 10 days after the inoculation. 0% means an efficacy which corresponds to that of the control, while an efficacy of 100% means that no infection is observed.

Data set [3] concerns caterpillars of the diamond-back moth (Plutella xylostella). Put plainly: Plutella Test. Format: in vivo. Conditions: cabbage leaves dipped, 0.1 % by weight active compound; after 7 days. Here is the method:
as §1
Cabbage leaves (Brassica oleracea) are treated by being dipped into the preparation of active compound of the desired concentration and populated with caterpillars of the diamond-back moth (Plutella xylostella) while the leaves are still moist.
After 7 days, the kill is determined and expressed in per cent. An efficacy of 100% means that all caterpillars have been killed, while an efficacy of 0% means that none of the caterpillars have been killed.

Each structure is given as a SMILES string.

For the compound `CC(C)(C)c1ccc(NC(=O)c2snc(Cl)c2Cl)cc1` [Example 3], the melting point was 148 to 149 °C. Further, the “Kill in % after 7 d” value in data set [1] is 100%.

In data set [2], `O=C(NCCc1cccc(Oc2ccc(Cl)cc2)c1)c1snc(Cl)c1Cl` [Example 6] gave a chromatographic logP of 4.79. The compound also displayed an Efficacy in % with Venturia inaequalis of 96%.

Take `CCC(C)c1ccc(NC(=O)c2snc(Cl)c2Cl)cc1` (stereo not drawn) [Example 16]: the melting point was 83 to 85 °C. The Efficacy in % with Leptosphaeria nodorum was determined as 81%. As to `O=C(Nc1ccccc1-c1ccccc1)c1snc(Cl)c1Cl` [Example 21], the melting point was 83 to 84 °C (dec.). Further, the “Kill in % after 7 d” value in data set [3] is 100%.

Regarding `CN(C=O)CNC(=O)c1snc(Cl)c1Cl`, the melting point was 87 to 88 °C. For `O=C(Nc1ccccc1C1CCCCCC1)c1snc(Cl)c1Cl` [Example 20], the melting point lay within 122 to 125 °C. Also, the “Kill in % after 7 d” value in data set [3] is 100%. In the case of `O=C(NCCOS(=O)OCCNC(=O)c1snc(Cl)c1Cl)c1snc(Cl)c1Cl`, the melting point was in the range of 70 to 75 °C. Compound `CCC(CC)c1ccc(NC(=O)c2snc(Cl)c2Cl)cc1` showed a melting point of 98 to 99 °C. The compound `CC(C)(C)CSCc1ccc(NC(=O)c2snc(Cl)c2Cl)cc1` gave a melting point of 91 to 92 °C. In the case of `CCN(CC)Cc1ccc(CNC(=O)c2snc(Cl)c2Cl)cc1` [Example 14], the chromatographic logP in data set [2] was 1.39. The “Kill in % after 7 d” value in data set [3] was determined as 100%. In turn, `Cc1ccc(NC(=O)c2snc(Cl)c2Cl)c(C)c1` registered a melting point of 171 to 172 °C. In the case of `O=C(NCCc1ccc(-c2ccc(Cl)cc2)cc1)c1snc(Cl)c1Cl` [Example 23], the melting point was in the range of 135 to 136 °C. Moreover, in data set [3], the “Kill in % after 7 d” value is on record as 100%. `CC(C)(C)c1ccc(CCNC(=O)c2snc(Cl)c2Cl)cc1` [Example 4] returned a chromatographic logP in data set [2] of 4.81. Further, the “Kill in % after 7 d” value in data set [3] is 100%.
